The supplement of paper PMC10307832

How the values were obtained:
Assay in all cases: relative viability (nuclei count vs DMSO), 5 days (fraction); higher = more cells survive
Salubrinal + Dasatinib = compound: O=C(/C=C/c1ccccc1)NC(NC(=S)Nc1cccc2cccnc12)C(Cl)(Cl)Cl [Salubrinal] + Cc1nc(Nc2ncc(C(=O)Nc3c(C)cccc3Cl)s2)cc(N2CCN(CCO)CC2)n1 [Dasatinib] (partner 0.075 µM)
In short: (§1)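 Medians of duplicate plates are given as relative viability. That measure is the nuclei count in treated wells divided by the count in vehicle wells. Counts were taken on 4× images of lung cancer cell lines in 1536-well plates, 5 days after pin-tool dosing the day after seeding with one drug alone or a fixed anchor-drug dose plus five library-drug doses (not always all listed) in √10 steps.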

Salubrinal + Luminespib = compound: O=C(/C=C/c1ccccc1)NC(NC(=S)Nc1cccc2cccnc12)C(Cl)(Cl)Cl [Salubrinal] + CCNC(=O)c1noc(-c2cc(C(C)C)c(O)cc2O)c1-c1ccc(CN2CCOCC2)cc1 [Luminespib] (partner 0.01 µM)
In short: as §1

[1] = compound: Cc1ccc2nc(NCCN)c3ncc(C)n3c2c1 + CC(C)C[C@H](NC(=O)[C@H](Cc1ccccc1)NC(=O)c1cnccn1)B(O)O [Bortezomib] (partner 0.002 µM)
In short: as §1

[2] = compound: Cc1ccc2nc(NCCN)c3ncc(C)n3c2c1 + Nc1ncn([C@H]2C[C@H](O)[C@@H](CO)O2)c(=O)n1 [Decitabine] (partner 2 µM)
In short: as §1

Cell Line	relative viability (Salubrinal + Dasatinib; first compound 0.08 µM)	relative viability (Salubrinal + Dasatinib; first compound 0.253 µM)	relative viability (Salubrinal + Dasatinib; first compound 0.8 µM)	relative viability (Salubrinal + Dasatinib; first compound 2.53 µM)	relative viability (Salubrinal + Dasatinib; first compound 8 µM)	relative viability (Salubrinal + Luminespib; first compound 0.08 µM)	relative viability (Salubrinal + Luminespib; first compound 0.253 µM)	relative viability (Salubrinal + Luminespib; first compound 0.8 µM)	relative viability (Salubrinal + Luminespib; first compound 2.53 µM)	relative viability (Salubrinal + Luminespib; first compound 8 µM)	relative viability ([1]; first compound 0.04 µM)	relative viability ([1]; first compound 0.1265 µM)	relative viability ([1]; first compound 0.4 µM)	relative viability ([1]; first compound 1.265 µM)	relative viability ([1]; first compound 4 µM)	relative viability ([2]; first compound 0.04 µM)	relative viability ([2]; first compound 0.1265 µM)	relative viability ([2]; first compound 0.4 µM)	relative viability ([2]; first compound 1.265 µM)	relative viability ([2]; first compound 4 µM)
NCI-H3122	0.828	0.869	0.802	0.846	0.914	0.117	0.112	0.0978	0.118	0.1	0.957	1.03	1.05	0.985	1.1	0.4	0.449	0.377	0.541	0.421
PC-3 [JPC-3]	1.14	0.762	1.1	0.966	0.961	0.747	0.511	0.671	0.736	0.571	0.863	0.893	0.723	0.842	0.707	0.831	0.889	0.854	0.846	0.761
PC-14	0.313	0.252	0.264	0.203	0.166	0.23	0.118	0.134	0.151	0.126	0.957	0.884	0.761	0.904	0.782	0.227	0.237	0.247	0.179	0.148
RERF-LC-KJ	0.928	0.771	0.92	0.827	0.634	1.31	1.37	1.41	1.13	1.08	1.19	0.968	1.11	1.07	0.983	0.63	0.709	0.684	0.765	0.616
SK-LU-1	0.188	0.22	0.181	0.172	0.176	0.182	0.201	0.206	0.214	0.198	1.39	1.28	0.989	1.29	1.02	0.672	0.656	0.744	0.665	0.69
SW 1573	0.553	0.488	0.627	0.402	0.417	0.211	0.26	0.206	0.238	0.169	0.978	1.08	0.965	1.2	0.55	0.593	0.497	0.547	0.637	0.37
